Where “and” joins values, the source holds several entries; their conditions need not be identical. Equal entries are not always repeated. Where two headings read alike, the source gives them in different places.
Columns and labels:
SARS-CoV (Urbani) = assay type: cell-based; settings: SARS-CoV-1, Huh-7, Table 5
HCoV-OC43 = assay: microbe, parasite or virus in culture; assay type: cell-based; settings: Betacoronavirus 1, OC43, RD
HCoV-229E [1] = settings: MRC-5 cells; cited from earlier work
[2] = test system: HCoV-229E, HCoV-OC43, SARS-CoV-1 and SARS-CoV-2; assay: organism not typed; assay type: cell-based, human coronaviruses; settings: Huh-7, read-out: Individual determinations of EC90 values
SARS-CoV-2 (WA1) = assay: microbe, parasite or virus in culture; assay type: cell-based
[3] = test system: human coronavirus beta-OC43; assay: microbe, parasite or virus in culture; assay type: cell-based, HCoV-OC43; settings: unidentified human coronavirus, OC43, Huh-7, read-out: VYR EC90
Huh7 cells = settings: human
[4] = test system: human coronavirus alpha-229E; assay: microbe, parasite or virus in culture; assay type: cell-based, HCoV-229E
[5] = Cytotoxicity in mock infected BHK cells (MTT); assay type: cell-based, hamster; settings: hamster, uninfected BHK-21 cells; BHK-21; Table 5
Method: To determine the cytotoxicity, cells were seeded at an initial density of 1×10^6 cells/mL in 96 well plates containing Minimum Essential Medium with Earles's salts (MEM-E), L-glutamine, 1 mM sodium pyruvate and 25 mg/L kanamycin, supplemented with 10% fetal bovine serum. Cell cultures were then incubated at 37° C. in a humidified 5% CO2 atmosphere in the absence or presence of serial dilutions of test compounds. Cell viability was determined by the MTT method.
Uninfected cells in the presence of serially diluted compound were used to assess the cytotoxicity of compounds.

HCoV-229E [6] = assay: Virus-induced CPE assay, HCoV-229E in BHK-21 cells (MTT); assay type: cell-based
Method: In an initial screening, BHK-21 cells acutely infected with a seasonal human alpha coronavirus, HCoV-229E, were exposed to serial dilutions of Compound 1A.
BHK-21 cells: Test compounds were dissolved in DMSO at 100 mM and then diluted in Minimum Essential Medium with Earle's salts (MEM-E) containing 1 mM sodium pyruvate and 25 μg/mL kanamycin, supplemented with 10% FBS (growth medium) to final concentrations of 100, 20, 4 and 0.8 μM (two […] replica plates each). After BHK-21 cells were grown to confluency in 96-well plates, growth medium was replaced with fresh maintenance medium (growth medium with 1% inactivated FBS in place of 10% FBS) containing serially diluted test compound and HCoV-229E at a multiplicity of infection (MOI) of 0.01. Uninfected cells in the presence of serially diluted compound were used to assess the cytotoxicity of compounds. After a 3-day incubation at 37° C. in a humidified 5% CO2 atmosphere, cell viability was determined by the MTT method (Pauwels, R et al. J. Virol. Methods 20(4):309-321 (1988)).

MERS-CoV = assay type: cell-based
RD cells = settings: human
[7] = test system: SARS-CoV-2 strain BavPatl; assay: Antiviral assay in HUH7.5 cells, viral RNA by RT-qPCR; assay type: cell-based; settings: 2 days
in vitro = settings: human
dNHBE (HAE) cells = settings: human
Salmonella/microsome = settings: acknowledged by Merck; cited from earlier work
[8] = test system: SARS-CoV and SARS-CoV-2 RTCs; assay type: biochemical; settings: equimolar concentrations of GTP
[9] = biological target: Sars-CoV-2 nsp8 labeling by nsp12 (Severe acute respiratory syndrome coronavirus 2, UniProt P0DTD1); assay: nsp8-UMPylation competition assay with RTCs; assay type: biochemical; settings: FIG. 13E
[10] = biological target: T1, SARS-Cov-1 nsp12:7L8:8 polymerase complex (Severe acute respiratory syndrome coronavirus, UniProt P0C6X7); assay type: biochemical
[11] = biological target: T1, SARS-Cov-1 nsp12:7L8:8 polymerase complex; assay: biochemical; assay type: biochemical
nsp12-NiRAN = nsp12-NiRAN (Severe acute respiratory syndrome coronavirus, UniProt P0C6X7); assay type: biochemical, SARS-CoV
SARS CoV1 nsp14 = SARS CoV1 nsp14 (Severe acute respiratory syndrome coronavirus, UniProt P0C6X7); assay type: biochemical, SARS-CoV-1
nsp12 NiRAN active-site = nsp12 NiRAN active-site (Severe acute respiratory syndrome coronavirus, UniProt P0C6X7); assay: biochemical; assay type: biochemical, SARS-CoV
nsp12:7:8 RTC = nsp12:7:8 RTC (Severe acute respiratory syndrome coronavirus, UniProt P0C6X7); assay type: biochemical, SARS-CoV
nsp12 = nsp12 (Severe acute respiratory syndrome coronavirus, UniProt P0C6X7); assay type: binding, SARS-CoV
[12] = read-out: Virus Yield Reduction Assay EC90
[13] = read-out: Neutral Red Assay EC50
[14] = Severe acute respiratory syndrome coronavirus 2, HAE, read-out: EC90, single replicates
[15] = Severe acute respiratory syndrome coronavirus 2, HAE, read-out: Virus Yield Reduction Assay EC90
[16] = read-out: EC90, single replicates
[17] = Severe acute respiratory syndrome coronavirus 2, 48 h
[18] = Severe acute respiratory syndrome coronavirus 2, Huh7.5, 48 h

SMILES: CNc1nc(N)nc2c1ncn2[C@@H]1O[C@H](CO[P@@](=O)(N[C@@H](C)C(=O)OC(C)C)Oc2ccccc2)[C@@H](O)[C@@]1(C)F [Compound 1A]
- Selectivity Index (CC50/EC90) (SARS-CoV (Urbani)): >250
- EC90 (SARS-CoV (Urbani); [12]): 340 nM
- EC50 (HCoV-OC43; [13]): 2800 nM
- EC90 (HCoV-OC43; [12]): 2200 nM
- EC50 (HCoV-229E [1]): > 100000 nM
- EC90 [2]: 340 to 1200 nM
- replicate EC90 determinations (SARS-CoV-2 (WA1)): ^2Value represents the mean of two replicate EC90 determinations, 0.33 and 0.41 μg/mL
- EC90 (SARS-CoV-2 (WA1); Severe acute respiratory syndrome coronavirus 2, HAE, read-out: Average EC90 from two separate HAE assays): 500 nM
- EC90 (SARS-CoV-2 (WA1); [14]): 570 nM
- EC90 (SARS-CoV-2 (WA1); [15]): 0.37 µg/mL and 640 nM
- EC90 (SARS-CoV-2 (WA1); Severe acute respiratory syndrome coronavirus 2, HAE, read-out: replicate EC90 determinations): 0.33 µg/mL
- Selectivity Index (SARS-CoV-2 (WA1); dNHBE, virus yield reduction assay): >135
- EC90 (SARS-CoV-2 (WA1); [16]): 700 nM and 520 nM and 420 nM
- EC90 (SARS-CoV-2 (WA1); [12]): 470 nM
- EC90 [3]: 290 nM
- Neutral Red Assay CC50 (Huh7 cells): >50^ μg/mL
- Selectivity Index (CC50/EC90) ([4]; Huh-7, Table 5): >75
- EC50 [4, 13]: 1600 nM
- EC90 ([4]; unidentified human coronavirus, Huh-7, 72 h, read-out: Virus Yield Reduction Assay EC90): 1000 nM
- EC50 ([4]; unidentified human coronavirus, Huh-7, 120 h, read-out: Neutral Red Assay EC50): 1700 nM
- EC50 ([4]; unidentified human coronavirus, Huh-7, read-out: Neutral Red EC50): 1000 nM
- EC90 ([4]; unidentified human coronavirus, Huh-7, read-out: VYR EC90): 710 nM
- EC50 ([4]; unidentified human coronavirus, Huh-7, read-out: Visual EC50, Huh7 cells, visual CPE): 1000 nM
- CC50 at 3 days [5]: > 100000 nM
- EC50 (HCoV-229E [6]; BHK-21, the 2 experiments averaged in Table 5, read-out: EC50, single experiments): 2000 nM
- EC50 (HCoV-229E [6]; Human coronavirus 229E, BHK-21, 72 h, BHK-21, dye staining, 3-day incubation, read-out: EC50): 1800 nM
- EC50 (HCoV-229E [6]; Human coronavirus 229E, BHK-21, BHK-21, the 2 experiments averaged in Table 5, read-out: EC50, single experiments): 1600 nM
- difference of activity between MERS-CoV and other CoVs (MERS-CoV): 30 fold
- CC50 (RD cells): > 86000 nM

SMILES: CC(C)C[C@H](NC(=O)OCc1ccccc1)C(=O)N[C@@H](C[C@@H]1CCNC1=O)C(O)S(=O)(=O)O (some centres unmarked) [GC376]
- EC90 [7, 17]: < 150 nM
- EC50 [7, 18]: < 150 nM
- CC50 (in vitro): > 20000 nM

SMILES: O=c1nc(NO)ccn1[C@@H]1O[C@H](CO)[C@@H](O)[C@H]1O [N4-hydroxycytidine, reference compound]
- Selectivity Index (CC50/EC90) (SARS-CoV-2 (WA1)): >5.1
- potency relative to Compound 1A in the same experiment (times less) (SARS-CoV-2 (WA1)): 8 times
- EC90 (SARS-CoV-2 (WA1); [14]): 4700 nM
- EC90 (SARS-CoV-2 (WA1); [15]): 3900 nM
- EC90 (SARS-CoV-2 (WA1); [16]): 3100 nM
- CC50 (dNHBE (HAE) cells): > 19000 nM

SMILES: CNc1nc(N)nc2c1ncn2[C@@H]1O[C@H](COP(=O)(N[C@@H](C)C(=O)OC(C)C)Oc2ccccc2)[C@@H](O)[C@@]1(C)F (some centres unmarked) [Compound 1A]
- EC90 [7]: 3390 nM
- EC50 ([7]; listed as AT-511): 1100 nM and 1130 nM
- CC50 (HUH 7.5 cells): > 20000 nM

SMILES: CC(C)C(=O)OC[C@H]1O[C@@H](n2ccc(NO)nc2=O)[C@H](O)[C@@H]1O [Molnupiravir, molnupiravir]
- AMES test (Salmonella/microsome): positive
- EC50 [7]: 1710 nM
- EC90 [7, 17]: 4210 nM
- EC50 [7, 18]: 1700 nM
- CC50 (in vitro): > 20000 nM

SMILES: C[C@@]1(F)[C@H](O)[C@@H](COP(=O)(O)OP(=O)(O)OP(=O)(O)O)O[C@H]1n1cnc2c(=O)[nH]c(N)nc21 [AT-9010, 2′-fluoro-2′-C-methylguanosine-5′-triphosphate]
- discrimination compared with natural GTP [8]: ~5 fold
- fold more efficient at blocking nsp8 labeling than STP [9]: 4-5 fold
- Discrimination of ATEA-GTP, average [10]: 27.0+/−7.9 fold and 21.0+/−1.5 fold and 27.0 fold and 21.0 fold
- discrimination against GTP [10]: 22 fold
- inhibition of primer elongation [10]: no inhibition of primer elongation
- EC50 [11]: 1500 to 2000 nM
- inhibition of de novo synthesis on poly(A) template [11]: almost complete inhibition
- fold preference AT9010: GTP (nsp12-NiRAN): ~1.7 fold
- fold preference AT9010: UTP (nsp12-NiRAN): ~3.2 fold
- inhibition of N7-MTase activity (SARS CoV1 nsp14): no inhibition
- IC50 (nsp12 NiRAN active-site; IC50 of nsp8 labeling against GTP (FIG. 13C)): 2700 ± 300 nM
- IC50 (nsp12 NiRAN active-site; IC50 of nsp8 labeling against UTP (FIG. 13C)): 1900 nM
- IC50 (nsp12 NiRAN active-site; IC50 of nsp8 labeling, competition with UTP (FIG. 13A)): 870 nM
- inhibition of RNA synthesis from poly(C) template (nsp12:7:8 RTC): significantly reduces activity
- inhibition of synthesis of poly(U)n RNA from poly(A)27 template (nsp12:7:8 RTC): inhibits synthesis of poly(U)n RNA equally as well as STP
- thermal stability of nsp12 (nsp12): provides more thermodynamic stability than any other native nucleotide
